These results are taken from patent publication US8980226B2, “Aerosolized fosfomycin/aminoglycoside combination for the treatment of bacterial respiratory infections” (Gilead Sciences, Inc., priority 2004, dated 2015).

This assay has as its system P. aeruginosa ATCC 27853. Description: MBC/MIC, broth microdilution. The assay is classed as cell-based. As to conditions: aminoglycoside alone. As for the experimental part:
“Minimal bactericidal concentration (MBC)” means the lowest concentration of antibiotic that results in ≧3 Log10 of bacterial killing.
The MICs of amikacin, arbekacin, dibekacin, gentamicin, kanamycin, netilimicin, neomycin, streptomycin, and tobramycin alone were determined for P. aeruginosa ATCC 27853 by the broth-microdilution method according to NCCLS standards (NCCLS, 2003). E. coli ATCC 25922 and S. aureus ATCC 29213 were used as quality control stains. Bacterial strains were streaked onto blood agar plates, and incubated at 35° C. for 18 hours. Two to three bacterial colonies from the overnight cultures were inoculated into 3 mL of sterile normal saline, vortexed briefly, and adjusted to a 0.5 McFarland standard (NCCLS, 2003). The bacterial suspension was diluted 1:100 in cation-adjusted Mueller-Hinton broth (hereafter referred to as CAMHB). Fifty microliters of bacterial inoculum (approximately 2×10^5 CFU/mL) was pipeted into individual wells of 96-well plates containing 50 μl of CAMHB (Remel, Lenexa, Kanas) supplemented with 2-fold dilutions of antibiotics ranging in concentration from 0.125 μg/mL to 128 μg/mL. The MIC was defined as the lowest concentration of antibiotic (s) that prevented visible growth after incubation at 35° C. for 18-24 hours.
The MBCs of fosfomycin, amikacin, arbekacin, dibikacin, gentamicin, kanamycin B, netilimicin, neomycin, streptomycin, or tobramycin alone for P. aeruginosa ATCC 27853, E. coli ATCC 25922, and S. aureus ATCC 29213 were determined by the broth microdilution method according to NCCLS standards (NCCLS, 1999). Bacterial strains were streaked onto blood agar plates and incubated at 35° C. for 18-24 hours. Two to three bacterial colonies from the overnight cultures were inoculated into 3 mL of sterile normal saline, vortexed briefly, and adjusted to a 0.5 McFarland standard (NCCLS, 2003). Fifty microliters of bacterial inoculum (approximately 2×10^5 CFU/mL) was pipeted into individual wells of 96-well plates containing 50 μl of CAMHB (Remel, Lenexa, Kanas) supplemented with 2-fold dilutions of antibiotics ranging in concentration from 0.125 μg/mL to 128 μg/mL. Plates were incubated at 35° C. for 18-24 hours and MIC determined as described in Example 5, Method C. The contents of wells showing no growth (MIC and above) were mixed with a pipetor and duplicate 10 μl samples spread onto blood agar plates. Culture plates were incubated at 35° C. for 18-24 hours and the number of bacterial colonies on each plate enumerated manually. Rejection values were determined by NCCLS methods which considers the final inoculum size, single or double sampling, pipetting error, and the Poisson distribution of sample responses (NCCLS, 1999). […] The MBC was defined as the ≧3 Log10 decrease in CFU/mL of the original inoculum as described by NCCLS standards (NCCLS, 1999). The MBC/MIC ratios were calculated by dividing the MBC by the MIC.
In general terms: Dilution methods test growth across graded concentrations, often in twofold steps.

`CCN[C@@H]1C[C@H](N)[C@@H](O[C@H]2OC(CN)=CC[C@H]2N)[C@H](O)[C@H]1O[C@H]1OC[C@](C)(O)[C@H](NC)[C@H]1O` [Netilimicin, netilmicin]: the “MBC/MIC Aminoglycoside” value is on record as 1.

Regarding `NCC[C@H](O)C(=O)N[C@@H]1C[C@H](N)[C@@H](O[C@H]2O[C@H](CN)CC[C@H]2N)[C@H](O)[C@H]1O[C@H]1O[C@H](CO)[C@@H](O)[C@H](N)[C@H]1O` [Arbekacin, arbekacin], the “MBC/MIC Aminoglycoside” value is given as 1. As for `NCC[C@H](O)C(=O)N[C@@H]1C[C@H](N)[C@@H](O[C@H]2O[C@H](CN)[C@@H](O)[C@H](O)[C@H]2O)[C@H](O)[C@H]1O[C@H]1O[C@H](CO)[C@@H](O)[C@H](N)[C@H]1O` [Amikacin, amikacin], the “MBC/MIC Aminoglycoside” value came out at 2.

For `NC[C@@H]1CC[C@@H](N)[C@@H](O[C@H]2[C@H](O)[C@@H](O[C@H]3O[C@H](CO)[C@@H](O)[C@H](N)[C@H]3O)[C@H](N)C[C@@H]2N)O1` [Dibekacin, dibekacin], the “MBC/MIC Aminoglycoside” value was 1. With gentamicin, the “MBC/MIC Aminoglycoside” value stood at 2. For neomycin, the “MBC/MIC Aminoglycoside” value is recorded as 2.

For the compound `[H]/N=C(/N)N[C@H]1[C@H](O)[C@@H](O)[C@H](O[C@@H]2O[C@@H](C)[C@](O)(C=O)[C@H]2O[C@@H]2O[C@@H](CO)[C@H](O)[C@@H](O)[C@@H]2NC)[C@@H](N/C(N)=N\[H])[C@@H]1O` [Streptomycin, streptomycin], the “MBC/MIC Aminoglycoside” value is on record as 4.
